Test [1] concerns p53, p21, MDM2, Bcl-2, Cyclin A, Cyclin D, Cdc 2, Bcl-XL, Bax, Rb and Cdk-2. The test is described as follows: Western blot of proteins of apoptotic pathways in H460 whole-cell extracts. Type of test: cell-based, human. The conditions noted are these: 0.05 μg/ml for 24 hr. How it is done:
Cells were grown in 6-cm dishes, cultured, and treated as described above. To prepare the whole-cell lysates, the medium was removed and cells were washed twice with ice-cold Tris-buffered saline (TBS) (150 mM NaCl, 10 mM Tris; pH 7.6) and lysed with 0.5 ml of lysis buffer (10 mM Tris, 150 mM NaCl, 1% Triton X-100, 5 mM EDTA, 25 mM glycerphosphate, 1 mM phenylmethylsulphonyl fluoride (PMSF), 2 mM benzamidine, […], and 1 mM sodium orthovanadate) for 15 min. The lysed cells were then transferred to 1.5 ml microtubes, centrifuged at 15,000×g for 10 min at 4° C., and the supernatants collected mixed with Laemmli's sample buffer and subjected to western blot analysis as described elsewhere (Nare et al., 1994). Blots were probed with anti-p53 monoclonal antibody Bp53-12 (Santa Cruz Biotechnology, Inc.) and the immunocomplex was detected by the Enhanced Chemiluminescence kit according to the manufacturer's directions (Amersham).
To rule out the possibility that FZ and MZ have an effect on other proteins known to have a role in various apoptotic pathways, the inventors evaluated the effect of these drugs on a panel of such proteins. […] Specifically, the levels of these proteins were evaluated by Western blot analyses before and after exposure to 0.05 μg/ml FZ or MZ for 24 hr using whole-cell extracts. […] The protein level of the phosphorylated form of Rb also remained unchanged after treatment.
Background: A western blot detects proteins with antibodies after separation by electrophoresis.

Test [2] relates to H358. Kind of test: Proliferation assay, 50% growth inhibitory concentration. Type of test: cell-based. To be noted: Homo sapiens, NCI-H358, 24 h; H358, p53 deleted; after 1 day of exposure. How it is done: (§1) All cell lines were grown in RPMI 1640 medium supplemented with 5% fetal bovine serum and 5% CO2. All experiments were done when the cells were 70% confluent. For cell growth measurements, 5×10^4 cells were plated in each well of six-well plates. Control and BZ-treated (0.05 μg/ml) cells were trypsinized and counted using a hemocytometer. Experiments were done in triplicate and the mean and standard deviation were determined by standard methods.
(§2) Studies to determine the IC50 for fenbendazole and mebendazole were performed on a panel of six different human cancer cell lines: two carrying the wild-type p53 gene and actively expressing the p53 protein, (H460 and A549); one marked by homozymes deletion of the p53 gene and lacking p53 gene expression (H358); two expressing mutant p53 (H322 and H596); and one in which wild-type p53 is inactivated by human papilloma virus E6 protein. […] A dose of 166 nM (˜[…]) was chosen for these studies because it had been shown previously that this concentration was sufficient to induce wild-type p53 after 24 h of treatment.

For a further test, the system named is HeLa (p53 inactivated). The description is as above. Type of test: cell-based. The conditions noted are these: Homo sapiens, 24 h, after 1 day of exposure. How it is done: as §1, §2
Test [3] concerns H460. The description is as above. The class given is cell-based. The conditions noted are these: Homo sapiens, NCI-H460, 24 h; H460, p53 positive; inhibit growth by 50% after 1 day of exposure. How it is done: as §1, §2
A further test deals with A549. The test is described as above. To be noted: Homo sapiens, 24 h; A549, p53 positive; after 1 day of exposure. Type of test: cell-based. How it is done: as §1, §2
In the next test the test system is H322. Described as above. The class given is cell-based. To be noted: Homo sapiens, NCI-H322, 24 h; H322, p53 mutated; after 1 day of exposure. As for the experimental part:
as §1, §2

Test [4] has as its system H596. Described as above. Type of test: cell-based. The conditions noted are these: Homo sapiens, NCI-H596, 24 h; H596, p53 mutated; after 1 day of exposure. As for the experimental part: as §1, §2
Test [5] deals with H358. Kind of test: Cell viability, trypan blue cell count assay. The class given is cell-based. To be noted: Homo sapiens, NCI-H358, H358 (lung, p53 deleted), 100% = untreated cells. How it is done: as §1
(§3) To further investigate the relationship between the induction of functional p53 and the subsequent apoptosis mediated by these drugs, the inventors posited that if BZs require wild-type p53 in order to exert their effect, then fenbendazole and mebendazole would not be cytotoxic to the many tumor lines producing a mutated p53 protein. To investigate this possibility, human cell lines derived from NSCLC origins of differing p53 status were further analyzed by a 5-day cell growth assay. The cells were plated onto a six-well plate, and the viability of the cells was determined by trypan blue exclusion. Cells were counted on a hemocytometer. The values shown are the means ±standard deviation of triplicate samples. Duplicate experiments gave similar results. H322 is a human lung adenocarcinoma line that produces a mutant p53 protein. […] However, fenbendazole and mebendazole induced nuclear accumulation of p53 only in the H460 cell line, which carries wild-type p53 genes. […] Cells were exposed to FZ (filled bar) or MZ (hatched bar) for 24 hr. A concentration of 0.05 μg/ml FZ and MZ was used. An immunoblot analysis of nuclear p53 was also performed to determine whether these drugs induced the production of p53. Equal amounts of protein extracts from each cell line before and after treatment were used for this analysis.

In another test the test system is H1299. The test is described as follows: Cell viability, trypan blue cell count assay. The conditions noted are these: Homo sapiens, NCI-H1299, H1299 (lung, p53 deleted), 100% = untreated cells. Type of test: cell-based. How it is done:
as §1, §3

The subject of another test is MCF-7. Kind of test: Cell viability, trypan blue cell count assay. To be noted: Homo sapiens, MCF7, MCF-7 (breast, wild-type p53), 100% = untreated cells. The class given is cell-based. How it is done: as §1, §3
The subject of test [6] is H460. Kind of test: Cell viability, trypan blue cell count assay. Type of test: cell-based. The conditions noted are these: Homo sapiens, NCI-H460, H460 (lung, wild-type p53), 100% = untreated cells. As for the experimental part: as §1, §3
The subject of another test is HT1080. The test is described as follows: Cell viability, trypan blue cell count assay. To be noted: Homo sapiens, HT-1080, HT1080 (fibrosarcoma, wild-type p53), 100% = untreated cells. The class given is cell-based. As for the experimental part:
as §1, §3

The subject of the next test is H226Br. The test is described as follows: Cell viability, trypan blue cell count assay. The class given is cell-based. The conditions noted are these: Homo sapiens, H226Br (lung, R254), 100% = untreated cells. As for the experimental part:
as §1, §3

A further test relates to Hep 3B. The test is described as follows: Cell viability, trypan blue cell count assay. The class given is cell-based. To be noted: Homo sapiens, Hep3B, Hep 3B (liver, p53 deleted), 100% = untreated cells. As for the experimental part: as §1, §3
A further test deals with SK-OV-433. The test is described as follows: Cell viability, trypan blue cell count assay. Type of test: cell-based. To be noted: Homo sapiens, SK-OV-433 (ovarian, wild-type p53), 100% = untreated cells. As for the experimental part: as §1, §3
Test [7] relates to H596. The test is described as follows: Cell viability, trypan blue cell count assay. The conditions noted are these: Homo sapiens. Type of test: cell-based. How it is done: as §1, §3
The subject of a further test is HeLa. Kind of test: Cell viability, trypan blue cell count assay. Type of test: cell-based. The conditions noted are these: Homo sapiens, HeLa (cervical, wild-type p53 inactivated by E6), 100% = untreated cells. How it is done:
as §1, §3

Like-named read-outs stand apart in the source and are kept apart here.

The IC50 is the point on the concentration scale where inhibition reaches its midpoint. Read a low IC50 as higher potency. One may read the viability as a per cent measure of how many cells are alive, often set against a control. Regarding `COC(=O)Nc1nc2ccc(Sc3ccccc3)cc2[nH]1` [Fenbendazole, methy 5-(phenylthio)-2-benzimidazole-2-carbamate], the “levels of Bcl-2, Cyclin A, Cyclin D, Cdc 2, Bcl-XL, Bax, Rb and Cdk-2” value in test [1] is listed as “no changes”. Further, in [1], the “levels of nuclear p53, p21 and MDM2” value was “enhanced”. Besides, the half-inhibitory concentration (IC50) in the test on H358 [2] is 654 nM; in the test on HeLa (p53 inactivated), 853 nM; in the test with H460 [3] it was 152 nM; in the test with A549, 123 nM; in the test on H322, 816 nM; in the test with H596 [4] it was 643 nM. In addition, the viability at 0.05 µg/mL with H358 [5] was found to be 88.3 ± 17.8%; in the test with H1299, 89.2 ± 1.1%; in the test with MCF-7 it was 43.9 ± 7.3%; in the test with H460 [6] it was 39.2 ± 6.4%; in the test on HT1080, 54.5 ± 12%; with H226Br it was 80.1 ± 11.1%. Moreover, the viability at 0.05 µg/mL was 79.5 ± 12.5% in the test with Hep 3B, 52.5 ± 13.2% with SK-OV-433 and 93.6 ± 7.4% in the test on HeLa. In addition, the viability in the test on H596 [7] (NCI-H596, read-out: % Cell Viability) was 86.7 ± 11.5%.
On to `COC(=O)Nc1nc2ccc(C(=O)c3ccccc3)cc2[nH]1` [Mebendazole, Methyl 5-benzoylbenzimidazole-2-carbamate], for which, in test [1], the “levels of Bcl-2, Cyclin A, Cyclin D, Cdc 2, Bcl-XL, Bax, Rb and Cdk-2” value is on record as “no changes”. The “levels of nuclear p53, p21 and MDM2” value in [1] was “enhanced”. Further, the concentration for half-maximal inhibition (IC50) in the test on H358 [2] stood at 893 nM; in the test on HeLa (p53 inactivated), 400 nM; in the test on H460 [3] it was 106 nM; in the test on A549, 130 nM; in the test on H322 it was 871 nM; in the test on H596 [4], 601 nM. In addition, the viability at 0.05 µg/mL stood at 73.5 ± 1.8% in the test on H358 [5]; 89.2 ± 4.3% in the test on H1299; 24.3 ± 8.4% with MCF-7; 25.2 ± 7.6% in the test on H460 [6]; 44.5 ± 7.7% in the test on HT1080; 64.24 ± 0.2% in the test on H226Br. Besides, the results for the viability at 0.05 µg/mL in the test on Hep 3B, with SK-OV-433 and in the test on HeLa were 83.2 ± 1.5%, 28.1 ± 6.1% and 92.4 ± 6.27%, respectively. In addition, the viability in the test on H596 [7] (NCI-H596, H596 (lung, R245C), 100% = untreated cells, read-out: % Cell Viability) was found to be 86.2 ± 8%.
